Measurements as given in patent publication US20240376097A1, “BCL-2 Inhibitor” (BeiGene Ltd., priority 2020, published 2024).
Read-outs that look alike come from different tables or passages of the source.

Columns and labels:
[1] = system: RS4;11 (BCL-2 dependent acute lymphoblastic leukemia cell line); assay: RS4;11 Cell Proliferation Assay; type: cell-based; conditions: read-out: Cellular proliferation assay (IC50, nM) RS4
Summary of the method: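 Viability measured via CellTiter-Glo luminescence after a 48 h, 37 °C exposure to compounds (10 points, highest 1 μM). Seeding was 50,000 RS4;11 cells per well in 10% FBS RPMI-1640; IC50 given as mean.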

[2] = target: Recombinant human Bcl-2 protein (Homo sapiens (Human), UniProt P10415); assay: Bcl-2 TR-FRET Assay; type: binding
Summary of the method: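 TR-FRET read (337 nm excitation, 520/490 nm emission) after 1 h with 0.5 nM FITC-labeled Bak peptide and Tb-cryptate anti-6His antibody. Bcl-2 at 0.05 nM had been pre-incubated 0.5 h with compound. IC50 fitted by four-parameter logistic equation.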

[3] = system: BCL-2 G101V knock-in cell line H96 (derive from RS4;11); assay: Bcl 2-G101V Knock-In RS4;11 Cell Proliferation Assay; type: cell-based; conditions: Homo sapiens, RS4;11 Bcl-2 G101V knock-in clone H96, 48 hrs, CellTiter-GLO, read-out: Cellular proliferation assay (IC50, nM) RS4
Summary of the method: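 CellTiter-Glo luminescence after 48 h, 37 °C compound treatment (10 concentrations, maximum 1 μM or 10 μM) gave mean IC50 values. Cells were 50,000 per well of H96, a BCL2-G101V knock-in single clone derived from RS4;11 by Cas9 editing.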

[4] = target: recombinant human Bcl-2 D103Y protein (Homo sapiens (Human), UniProt P10415, D103Y); assay: Bcl-2-D103Y Biochemical Assay (TR-FRET); type: binding; conditions: for IC50: TR-FRET, FITC labeled Bak peptide; for Ratio of Bcl-2 D103Y/Bcl-2 WT: ratio of IC50; for ratio of Bcl-2 D103Y/Bcl-2 wt, compared with F91b in WO2019210828: comparison in words
Summary of the method: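 Compounds titrated against the Bcl-2 D103Y–ligand interaction; inhibition derived from the TR-FRET emission ratio 490 nm/520 nm after 337 nm excitation. Four-parameter logistic fitting gave IC50.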

[5] = system: recombinant human Bcl-2-G101V protein; assay: Bcl-2-G101V TR-FRET Assay; type: binding; conditions: for Ratio of Bcl-2 G101V/WT: ratio of biochemical IC50 Bcl-2 G101V / Bcl-2 WT
Summary of the method: (§1)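 Displacement of ligand from recombinant human Bcl-2-G101V measured by TR-FRET (ex337 nm, em490/520 nm), inhibition derived from the 490/520 ratio across compound titrations. IC50 from four-parameter logistic fit.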

[6] = target: recombinant human Bcl-2-G101V protein (Homo sapiens (Human), UniProt P10415, G101V); assay: Bcl-2-G101V TR-FRET Assay; type: binding; conditions: Bcl-2 G101V mutant, TR-FRET; read-out: Biochemical assay (IC50, nM) Bcl-2 G101V
Summary of the method: as §1

[7] = Homo sapiens, RS4-11, RS4;11 cells
[8] = Bcl-2 wild type, TR-FRET, read-out: Biochemical assay (IC50, nM) Bcl-2 WT
[9] = wild type Bcl-2, unit inferred, read-out: Bcl-2 WT

## COc1ccc(CN2CCN(C3CC4(C3)CN(c3ccc(C(=O)NS(=O)(=O)c5ccc(NC[C@H]6CC[C@](C)(O)CC6)c([N+](=O)[O-])c5)c(Oc5cnc6[nH]cc(Cl)c6c5)c3)C4)[C@H](c3ccccc3C(C)C)C2)cc1OC [Example 164, 2-((3-chloro-1H-pyrrolo[2,3-b]pyridin-5-yl)oxy)-4-(6-((R)-4-(3,4-dimethoxybenzyl)-2-(2-isopropylphenyl)piperazin-1-yl)-2-azaspiro[3.3]heptan-2-yl)-N-((4-((((1r,4r)-4-hydroxy-4-methylcyclohexyl)methyl)amino)-3-nitrophenyl)sulfonyl)benzamide]
[1]; [7]
  IC50: 0.23 nM
[2]; [8]
  IC50: 0.12 nM
[2]; [9]
  IC50: 0.12 nM
[3]
  IC50: 0.82 nM
[4]
  IC50: 120 pM
  Ratio of Bcl-2 D103Y/Bcl-2 WT: 1
[5]
  Ratio of Bcl-2 G101V/WT: 3
[6]
  IC50: 0.35 nM

## COc1ccc(CN2CCN(C3CC4(CCN(c5ccc(C(=O)NS(=O)(=O)c6ccc(NC[C@H]7CC[C@](C)(O)CC7)c([N+](=O)[O-])c6)c(Oc6cnc7[nH]ccc7c6)c5)CC4)C3)[C@H](c3ccccc3C(C)C)C2)cn1 [Example 185, 2-((1H-pyrrolo[2,3-b]pyridin-5-yl)oxy)-N-((4-((((1r,4r)-4-hydroxy-4-methylcyclohexyl)methyl)amino)-3-nitrophenyl)sulfonyl)-4-(2-((R)-2-(2-isopropylphenyl)-4-((6-methoxypyridin-3-yl)methyl)piperazin-1-yl)-7-azaspiro[3.5]nonan-7-yl)benzamide]
[1]; [7]
  IC50: 0.14 nM
[2]; [8]
  IC50: 0.031 nM
[2]; [9]
  IC50: 0.031 nM
[3]
  IC50: 0.6 nM
[4]
  IC50: 50 pM
  Ratio of Bcl-2 D103Y/Bcl-2 WT: 1.6
[5]
  Ratio of Bcl-2 G101V/WT: 4.5
[6]
  IC50: 0.14 nM

## CC(C)c1ccccc1C1CN(Cc2cccc3c2OCCO3)CCN1C1CC2(CCN(c3ccc(C(=O)NS(=O)(=O)c4ccc(NC[C@H]5CC[C@](C)(O)CC5)c([N+](=O)[O-])c4)c(Oc4cnc5[nH]ccc5c4)c3)CC2)C1 (stereo partly shown) [Example 79, 2-((1H-pyrrolo[2,3-b]pyridin-5-yl)oxy)-4-(2-(4-((2,3-dihydrobenzo [b][1,4]dioxin-5-yl)methyl)-2-(2-isopropylphenyl)piperazin-1-yl)-7-azaspiro[3.5]nonan-7-yl)-N-((4-((((1r,4r)-4-hydroxy-4-methylcyclohexyl)methyl)amino)-3-nitrophenyl)sulfonyl)benzamide]
[1]; [7]
  IC50: 0.35 nM
[2]; [8]
  IC50: 0.16 nM
[2]; [9]
  IC50: 0.16 nM
[3]
  IC50: 1 nM
[4]
  IC50: 190 pM
  Ratio of Bcl-2 D103Y/Bcl-2 WT: 1.2
[5]
  Ratio of Bcl-2 G101V/WT: 3.2
[6]
  IC50: 0.51 nM

## CC(C)c1ccccc1C1CN(Cc2ccc(S(C)(=O)=O)cc2)CCN1C1CC2(CCN(c3ccc(C(=O)NS(=O)(=O)c4ccc(NC[C@H]5CC[C@](C)(O)CC5)c([N+](=O)[O-])c4)c(Oc4cnc5[nH]ccc5c4)c3)CC2)C1 (stereo partly shown) [Example 82, 2-((1H-pyrrolo[2,3-b]pyridin-5-yl)oxy)-N-((4-((((1r,4r)-4-hydroxy-4-methylcyclohexyl)methyl)amino)-3-nitrophenyl)sulfonyl)-4-(2-(2-(2-isopropylphenyl)-4-(4-(methylsulfonyl)benzyl)piperazin-1-yl)-7-azaspiro[3.5]nonan-7-yl) benzamide]
[1]; [7]
  IC50: 0.42 nM
[2]; [8]
  IC50: 0.031 nM
[2]; [9]
  IC50: 0.031 nM
[3]
  IC50: 2.67 nM
[4]
  IC50: 170 pM
  Ratio of Bcl-2 D103Y/Bcl-2 WT: 5.6
[5]
  Ratio of Bcl-2 G101V/WT: 9.5
[6]
  IC50: 0.29 nM

## CC(C)c1ccccc1C1CC(Oc2ccccc2)CCN1C1CC2(CCN(c3ccc(C(=O)NS(=O)(=O)c4ccc(NC[C@H]5CC[C@](C)(O)CC5)c([N+](=O)[O-])c4)c(Oc4cnc5[nH]ccc5c4)c3)CC2)C1 (stereo partly shown) [Example 68, 2-((1H-pyrrolo[2,3-b]pyridin-5-yl)oxy)-N-((4-((((1r,4r)-4-hydroxy-4-methylcyclohexyl)methyl)amino)-3-nitrophenyl)sulfonyl)-4-(2-(2-(2-isopropylphenyl)-4-phenoxypiperidin-1-yl)-7-azaspiro [3.5]nonan-7-yl)benzamide]
[1]; [7]
  IC50: 0.47 nM
[2]; [8]
  IC50: 0.2 nM
[2]; [9]
  IC50: 0.2 nM
[3]
  IC50: 4.7 nM
[4]
  IC50: 870 pM
  ratio of Bcl-2 D103Y/Bcl-2 wt, compared with F91b in WO2019210828: significantly lower
  Ratio of Bcl-2 D103Y/Bcl-2 WT: 4.3
[5]
  Ratio of Bcl-2 G101V/WT: 4
[6]
  IC50: 0.81 nM

## COc1cc(CN2CCN(C3CC4(C3)CN(c3ccc(C(=O)NS(=O)(=O)c5ccc(NC[C@H]6CC[C@](C)(O)CC6)c([N+](=O)[O-])c5)c(Oc5cnc6[nH]ccc6c5)c3)C4)[C@H](c3ccccc3C(C)C)C2)cc2ccoc12 [Example 307, 2-((1H-pyrrolo[2,3-b]pyridin-5-yl)oxy)-N-((4-((((1r,4r)-4-hydroxy-4-methylcyclohexyl)methyl)amino)-3-nitrophenyl)sulfonyl)-4-(6-((R)-2-(2-isopropylphenyl)-4-((7-methoxybenzofuran-5-yl)methyl)piperazin-1-yl)-2-azaspiro[3.3]heptan-2-yl)benzamide]
[1]; [7]
  IC50: 0.11 nM
[2]; [8]
  IC50: 0.17 nM
[2]; [9]
  IC50: 0.17 nM
[3]
  IC50: 0.17 nM
[4]
  IC50: 180 pM
  Ratio of Bcl-2 D103Y/Bcl-2 WT: 1.1
[5]
  Ratio of Bcl-2 G101V/WT: 2.5
[6]
  IC50: 0.43 nM

## CC(C)c1ccccc1C1CN(C(C)c2ccccc2)CCN1C1CC2(CCN(c3ccc(C(=O)NS(=O)(=O)c4ccc(NC[C@H]5CC[C@](C)(O)CC5)c([N+](=O)[O-])c4)c(Oc4cnc5[nH]ccc5c4)c3)CC2)C1 (single isomer, unassigned) [Example 24b, 2-((1H-pyrrolo[2,3-b]pyridin-5-yl)oxy)-N-((4-((((1r,4r)-4-hydroxy-4-methylcyclohexyl)methyl)amino)-3-nitrophenyl)sulfonyl)-4-(2-(2-(2-isopropylphenyl)-4-(1-phenylethyl)piperazin-1-yl)-7-azaspiro[3.5]nonan-7-yl)benzamide]
[1]; RS4;11 cells
  IC50: 0.75 nM
[2]; [8]
  IC50: 0.24 nM
[2]; [9]
  IC50: 0.24 nM
[3]
  IC50: 6.49 nM
[4]
  IC50: 560 pM
  ratio of Bcl-2 D103Y/Bcl-2 wt, compared with F91b in WO2019210828: significantly lower
  Ratio of Bcl-2 D103Y/Bcl-2 WT: 2.3
[5]; comparison in words
  ratio of IC50 of Bcl-2 G101V/Bcl-2 wt, compared with Example F132b in WO2019210828 and ABT-199 (venetoclax): much lower
[5]
  Ratio of Bcl-2 G101V/WT: 4.6
[6]
  IC50: 1.1 nM

## [2H]C([2H])([2H])Oc1ccc(CN2CCN(C3CC4(C3)CN(c3ccc(C(=O)NS(=O)(=O)c5ccc(NC[C@H]6CC[C@](C)(O)CC6)c([N+](=O)[O-])c5)c(Oc5cnc6[nH]cc(F)c6c5)c3)C4)[C@H](c3ccccc3C(C)C)C2)cc1OC([2H])([2H])[2H] [Example 197, 4-(6-((R)-4-(3,4-bis(methoxy-d3)benzyl)-2-(2-isopropylphenyl)piperazin-1-yl)-2-azaspiro[3.3]heptan-2-yl)-2-((3-fluoro-1H-pyrrolo[2,3-b]pyridin-5-yl)oxy)-N-((4-((((1r,4r)-4-hydroxy-4-methylcyclohexyl)methyl)amino)-3-nitrophenyl)sulfonyl)benzamide]
[1]; [7]
  IC50: 0.16 nM
[2]; [8]
  IC50: 0.076 nM
[2]; [9]
  IC50: 0.076 nM
[3]
  IC50: 0.29 nM
[4]
  IC50: 89 pM
  Ratio of Bcl-2 D103Y/Bcl-2 WT: 1.2
[5]
  Ratio of Bcl-2 G101V/WT: 1.9
[6]
  IC50: 0.15 nM
